Where no end group is shown, it is not given here. code Z = not defined here
Experiments:
[1] = molecular target: T1, fibrin (in vitro human plasma clot) (Homo sapiens, UniProt P02671+P02675+P02679); experiment: Incorporation into human plasma clots in vitro; assay type: biochemical; details: for % specific uptake: % retained (with thrombin) - % retained (no thrombin); for % retained (no thrombin): control without thrombin and calcium chloride (non-specific binding); for % retained (with thrombin): human plasma clot, 60 minutes, ca. 20° C.
T1 construct: about 400 μl of human plasma containing the radiolabelled substrate; from tissue; host or cells: human plasma, clotted in vitro with added thrombin and calcium chloride
T1 sequence (P02671 20-644 isoform P02671-2 limits assumed): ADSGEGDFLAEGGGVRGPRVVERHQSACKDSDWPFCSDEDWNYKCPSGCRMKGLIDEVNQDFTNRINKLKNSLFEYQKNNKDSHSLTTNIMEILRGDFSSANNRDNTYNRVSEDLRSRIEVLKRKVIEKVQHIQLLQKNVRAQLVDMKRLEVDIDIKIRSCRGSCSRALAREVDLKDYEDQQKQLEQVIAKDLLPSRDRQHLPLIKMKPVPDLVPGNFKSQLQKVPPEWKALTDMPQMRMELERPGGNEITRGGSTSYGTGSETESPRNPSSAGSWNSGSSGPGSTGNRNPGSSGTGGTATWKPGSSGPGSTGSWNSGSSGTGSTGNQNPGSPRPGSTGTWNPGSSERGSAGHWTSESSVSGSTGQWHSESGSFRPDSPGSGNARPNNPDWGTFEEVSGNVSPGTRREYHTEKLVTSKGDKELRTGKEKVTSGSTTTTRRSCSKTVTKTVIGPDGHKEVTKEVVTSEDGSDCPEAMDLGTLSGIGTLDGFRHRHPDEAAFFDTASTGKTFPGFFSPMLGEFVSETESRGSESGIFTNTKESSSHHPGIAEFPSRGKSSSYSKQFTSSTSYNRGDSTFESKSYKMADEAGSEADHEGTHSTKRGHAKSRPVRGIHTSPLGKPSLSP
T1 sequence (P02675 45-491 limits assumed): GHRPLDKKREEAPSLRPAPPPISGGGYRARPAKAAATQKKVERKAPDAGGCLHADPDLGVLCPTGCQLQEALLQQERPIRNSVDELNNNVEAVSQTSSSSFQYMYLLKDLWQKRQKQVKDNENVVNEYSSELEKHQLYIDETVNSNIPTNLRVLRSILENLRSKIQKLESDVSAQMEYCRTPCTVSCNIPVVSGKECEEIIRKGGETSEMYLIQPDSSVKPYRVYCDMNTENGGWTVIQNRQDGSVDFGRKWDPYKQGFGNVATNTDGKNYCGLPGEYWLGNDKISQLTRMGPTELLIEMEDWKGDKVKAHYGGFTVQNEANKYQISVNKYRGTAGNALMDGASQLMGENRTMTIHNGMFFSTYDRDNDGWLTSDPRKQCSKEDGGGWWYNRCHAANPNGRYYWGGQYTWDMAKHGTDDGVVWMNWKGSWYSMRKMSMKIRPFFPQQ
T1 sequence (P02679 27-437 isoform P02679-2 limits assumed): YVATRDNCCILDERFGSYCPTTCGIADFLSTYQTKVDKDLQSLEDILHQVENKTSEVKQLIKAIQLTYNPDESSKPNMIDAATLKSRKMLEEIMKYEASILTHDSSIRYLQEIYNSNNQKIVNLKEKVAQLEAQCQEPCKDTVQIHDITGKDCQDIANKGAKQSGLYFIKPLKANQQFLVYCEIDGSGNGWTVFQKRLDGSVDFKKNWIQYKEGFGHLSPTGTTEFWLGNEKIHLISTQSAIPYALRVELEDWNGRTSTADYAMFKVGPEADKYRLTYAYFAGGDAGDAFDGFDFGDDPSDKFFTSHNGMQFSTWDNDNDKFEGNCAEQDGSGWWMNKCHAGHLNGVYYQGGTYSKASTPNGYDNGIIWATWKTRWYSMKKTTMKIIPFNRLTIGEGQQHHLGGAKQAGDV
Description: Incorporation of radiolabelled substrates into fibrin was investigated by induction of an in vitro human plasma clot in the following manner. To a siliconised 5 ml glass vial was added, (a) 800 μl of Tris(hydroxymethyl)aminomethane buffered saline pH 7.5 containing calcium chloride (50 mM Tris, 150 mM sodium chloride, 4 mM calcium chloride.), (b) about 40 μl of physiological salt solution containing 100 units of thrombin per ml, (c) about 400 μl of human plasma containing the radiolabelled substrate at a concentration of typically 10 kBq/ml. To aid induction of clot a roughened glass rod was added to the reaction vial. Control vials were prepared similarly but with the omission of thrombin and calcium chloride.
After incubation of the test solution at ambient laboratory temperature (ca. 20° C.) for 60 minutes the reaction was discontinued with the addition of about 400 μl of a cold solution of 33.5 mM ethylenediaminetetra-acetic acid disodium salt. Clots were separated from serum by vacuum filtration onto […] nitrocellulose filters (pre-soaked in 1.5% BSA/tris(hydroxymethyl)aminoethae buffered saline pH 7.5 containing 0.1% Tween 20) and washed with about 2×10 ml of tris(hydroxymethyl)aminomethane buffered saline pH 7.5 containing Tween 20 to a final concentration of 0.1% v/v. The proportion of total radioactivity was calculated by counting in suitable detection apparatus.
The fraction of radioactivity retained on the filter, after subtraction of the non-specific binding determined from the control, is a measure of incorporation into the filtered clots.

[2] = Incorporation into clots induced in a rat model (rat inferior vena cava model); assay type: in vivo, rat (Male Wistar); details: for % id/g (clot) / Rel. Conc. (cpm/g of clot by dose/g animal): sacrificed after 60 min
Description: The rats (Male Wistar, 250–350 g) were anaesthetised with 15% urethane. After laparotomy, the vena cava was isolated and freed of surrounding fat tissue. […] The compounds were injected 5 min (fresh clot) and 60 min (aged clot) post-induction. After 60 min the animals were sacrificed and the clot removed, weighed and counted. Other tissues e.g. blood, lung, heart, were also dissected and counted. The uptake of tracer into the clot was determined as the relative concentration (cpm/g of clot by dose/g animal) and clot to background tissue.

[3] = Aged Clots: injected 60 min post-induction
[4] = Fresh Clots: injected 5 min post-induction

## (CF3)2(C6H3)-NQEQVSPYTLLKG-Pn216 ({(CF3)2(C6H3)}-NQEQVSPYTLLKG-Pn216; also: 99mTc complex) [^99mTc-Cmpd 10]
[1]
  % specific uptake: 65.7%
  % retained (no thrombin): 0.2%
  % retained (with thrombin): 65.9%
[2]; Aged Clots
  Clot/blood: 6
  Clot/heart: 16
  Clot/liver: 5
  Clot/lung: 6
[2]; [3]
  % id/g (clot): 2.9 ± 1.4 % id/g
  Rel. Conc. (cpm/g of clot by dose/g animal): 6.3 ± 2.7
[2]; Fresh Clots
  Clot/blood: 4
  Clot/heart: 10
  Clot/liver: 5
  Clot/lung: 5
[2]; [4]
  % id/g (clot): 2.9 ± 0.5 % id/g
  Rel. Conc. (cpm/g of clot by dose/g animal): 6.5 ± 1.2

## Ac-(D-N)QEQVSP(D-Y)TLL(D-K)G-Pn216 [^99mTc-Cmpd 32]
[1]
  % specific uptake: 19.8%
  % retained (no thrombin): 0.4%
  % retained (with thrombin): 20.2%
[2]; Aged Clots
  Clot/blood: 3
  Clot/heart: 43
  Clot/liver: 21
  Clot/lung: 15
[2]; [3]
  % id/g (clot): 0.7 ± 0.1 % id/g
  Rel. Conc. (cpm/g of clot by dose/g animal): 2.0 ± 0.4
[2]; Fresh Clots
  Clot/blood: 10
  Clot/heart: 26
  Clot/liver: 27
  Clot/lung: 11
[2]; [4]
  % id/g (clot): 1.7 ± 0.7 % id/g
  Rel. Conc. (cpm/g of clot by dose/g animal): 4.6 ± 1.9

## Ac-GQDPVKG-Pn216 (also: 99mTc complex) [^99mTc-Cmpd 48]
[1]
  % specific uptake: 10.5%
  % retained (no thrombin): 0.1%
  % retained (with thrombin): 10.6%
  in vitro clot uptake (in words): significant reduction in uptake
[2]; Aged Clots
  Clot/blood: 1
  Clot/heart: 32
  Clot/liver: 26
  Clot/lung: 109
[2]; [3]
  % id/g (clot): 0.2 ± 0.04 % id/g
  Rel. Conc. (cpm/g of clot by dose/g animal): 0.8 ± 0.2
[2]; Fresh Clots
  Clot/blood: 0.6
  Clot/heart: 2
  Clot/liver: 3
  Clot/lung: 0.9
[2]; [4]
  % id/g (clot): 0.3 ± 0.2 % id/g
  Rel. Conc. (cpm/g of clot by dose/g animal): 1.0 ± 0.5

## Ac-LEFDTQSKNILG-Pn216 (also: 99mTc complex) [^99mTc-Cmpd 47]
[1]
  % specific uptake: 49.8%
  % retained (no thrombin): 0.1%
  % retained (with thrombin): 49.9%
[2]; Aged Clots
  Clot/blood: 1
  Clot/heart: 46
  Clot/liver: 44
  Clot/lung: 24
[2]; [3]
  % id/g (clot): 0.5 ± 0.3 % id/g
  Rel. Conc. (cpm/g of clot by dose/g animal): 1.5 ± 0.8
[2]; Fresh Clots
  Clot/blood: 0.8
  Clot/heart: 3
  Clot/liver: 1
  Clot/lung: 1
[2]; [4]
  % id/g (clot): 0.8 ± 0.7 % id/g
  Rel. Conc. (cpm/g of clot by dose/g animal): 2.2 ± 2.0

## Ac-LGPGQSKVIG-Pn44 (also: 99mTc complex) [^99mTc-Cmpd 45]
[1]
  % specific uptake: 28.6%
  % retained (no thrombin): 0.1%
  % retained (with thrombin): 28.7%
[2]; Aged Clots
  Clot/blood: 8
  Clot/heart: 11
  Clot/liver: 3
  Clot/lung: 5
[2]; [3]
  % id/g (clot): 2.0 ± 0.8 % id/g
  Rel. Conc. (cpm/g of clot by dose/g animal): 5.7 ± 2.3
[2]; Fresh Clots
  Clot/blood: 6
  Clot/heart: 10
  Clot/liver: 3
  Clot/lung: 5
[2]; [4]
  % id/g (clot): 2.0 ± 0.5 % id/g
  Rel. Conc. (cpm/g of clot by dose/g animal): 5.5 ± 1.3

## Ac-NQEQV(D-S)P(D-Y)TLL(D-K)G-Pn216 [^99mTc-Cmpd 30]
[1]
  % specific uptake: 14.7%
  % retained (no thrombin): 0.2%
  % retained (with thrombin): 14.9%

## Ac-NQEQVSPYTLLKG-(PEG)3.4k-Pn44 (Ac-NQEQVSPYTLLKG-{PEG 3.4k-Pn44}; also: 99mTc complex) [^99mTc-Cmpd 40]
[1]
  % specific uptake: 13.2%
  % retained (no thrombin): 0.1%
  % retained (with thrombin): 13.3%

## NQEQVSPYTLLKG-Pn216 (also: 99mTc complex) [^99mTc-Cmpd 6]
[1]
  % specific uptake: 64.3%
  % retained (no thrombin): 4.3%
  % retained (with thrombin): 68.6%

## Z-NQEQVSP(I2-Y)TLLKG-Pn216 [^99mTc-Cmpd 25]
[1]
  % specific uptake: 63.7%
  % retained (no thrombin): 4.3%
  % retained (with thrombin): 68.0%

## Z-NQEQVSPYG-Pn216 ({code Z}-NQEQVSPYG-Pn216; reading uncertain; also: 99mTc complex, printed as Z-NQEQVSPYG-Pn216) [^99mTc-Cmpd 18]
[1]
  % specific uptake: 9.7%
  % retained (no thrombin): 0.1%
  % retained (with thrombin): 9.8%
  in vitro clot uptake (in words): significant reduction in uptake
